This is an account of results in PubChem BioAssay (NCI).

Some test systems named below: HCT-15 colon; COLO 205 colon; M14 melanoma; SF-539 CNS; OVCAR-3 ovarian; ACHN renal; 786-0 renal; TK-10 renal; MOLT-4 leukemia; HL-60(TB) leukemia; NCI-H226 lung.
What all share (experiment): NCI anticancer screen, dose series, 48 h

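How tested: cells in 96-well plates exposed to compound for 48 hours at five concentrations. GI50 = concentration required for 50% inhibition of growth. TGI: total growth inhibition.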

Take `CC(=O)c1cccc(Nc2nc3ccccc3c3[nH]c4ccccc4c23)c1`: the TGI in the test on HCT-15 colon was over 100 µM; with COLO 205 colon it was 5.81 µM; in the test with M14 melanoma, over 100 µM; in the test on SF-539 CNS, 18 µM; in the test on OVCAR-3 ovarian it was 6.56 µM; in the test on ACHN renal it was 40.5 µM. Moreover, the TGI in the test with 786-0 renal was 11.7 µM; with TK-10 renal it was 37 µM.

Regarding `CC(C)(C)OC(=O)C1/C(=C/CBr)CN1C(=O)OC(C)(C)C` (configuration not stated), the TGI was 26.1 µM in the test on MOLT-4 leukemia; 23.3 µM with HCT-15 colon; 6.1 µM in the test on COLO 205 colon; 41.9 µM with M14 melanoma; 35.9 µM in the test on SF-539 CNS; 28.6 µM in the test with OVCAR-3 ovarian. Further, the TGI with ACHN renal was 33 µM; with 786-0 renal, 23.2 µM; with TK-10 renal, 31.3 µM; in the test with HL-60(TB) leukemia, 7.5 µM.

For `Cc1cc(S(=O)(=O)NC2=NCC(C)(C)CN2)c(S)cc1Cl`, the TGI with HCT-15 colon was over 100 µM; in the test with COLO 205 colon, over 100 µM; in the test on M14 melanoma, over 100 µM; in the test on SF-539 CNS, over 100 µM; with OVCAR-3 ovarian, over 100 µM; with ACHN renal it was 71.6 µM. In addition, the TGI is 94.8 µM in the test on NCI-H226 lung, over 100 µM in the test with 786-0 renal, over 100 µM with TK-10 renal and 62.1 µM in the test on HL-60(TB) leukemia.

`COc1cc([C@@H]2c3cc4c(cc3[C@@H](NC(=O)NO)[C@H]3COC(=O)[C@H]23)OCO4)cc(OC)c1O`: the values for the GI50 in the test on MOLT-4 leukemia, in the test on M14 melanoma and in the test on ACHN renal were 4.87 µM, 37 µM and 6.04 µM, respectively. For the same compound, the TGI in the test with MOLT-4 leukemia, with HCT-15 colon, in the test with COLO 205 colon, in the test on M14 melanoma, in the test on SF-539 CNS and in the test on 786-0 renal was over 100 µM in each case. For the same compound, the TGI in the test with TK-10 renal and in the test with HL-60(TB) leukemia was over 100 µM throughout.

With `CC(C)(C)NC(=S)N/N=C/c1ccccn1`, the TGI in the test with HCT-15 colon is over 100 µM; in the test on COLO 205 colon it was over 100 µM; in the test with M14 melanoma, over 41.9 µM; with SF-539 CNS, 27.6 µM; in the test on OVCAR-3 ovarian, over 100 µM; in the test on ACHN renal it was 27 µM. In addition, the TGI in the test with NCI-H226 lung is over 25.9 µM; in the test on 786-0 renal, over 100 µM; with TK-10 renal, over 100 µM.

`CC(C)=CCOc1ccc(-c2coc3cc4c(c(O)c3c2=O)C=CC(C)(C)O4)cc1`: the TGI with MOLT-4 leukemia, in the test on HCT-15 colon, in the test on COLO 205 colon, in the test with OVCAR-3 ovarian, in the test on ACHN renal and in the test on NCI-H226 lung was over 100 µM throughout. The TGI with 786-0 renal, in the test on TK-10 renal and in the test on HL-60(TB) leukemia was over 100 µM in each case.

On to `Oc1ccc(/C=N/c2nccs2)c(O)c1`, for which the TGI in the test with HCT-15 colon was over 100 µM; in the test on COLO 205 colon, 92.1 µM; in the test on M14 melanoma, over 100 µM; in the test with SF-539 CNS, over 100 µM; with OVCAR-3 ovarian it was over 100 µM; in the test on ACHN renal it was over 100 µM. Also, the TGI in the test with NCI-H226 lung, in the test with 786-0 renal and with TK-10 renal was over 100 µM in each case.

On to `CCOC(=O)c1ccc(N(CCOS(=O)(=O)c2ccc(C)cc2)CCOS(=O)(=O)c2ccc(C)cc2)cc1`, for which the TGI in the test on MOLT-4 leukemia was over 100 µM; in the test on HCT-15 colon it was over 100 µM; in the test with COLO 205 colon it was over 100 µM; with M14 melanoma, over 100 µM; in the test with SF-539 CNS, 41.1 µM; in the test on OVCAR-3 ovarian, over 100 µM. The TGI in the test on ACHN renal and in the test with TK-10 renal was over 100 µM throughout.

Regarding `CC(=O)N1N=C(c2ccc3ccccc3c2O)CC1c1ccc(N(C)C)cc1` (configuration not stated), the TGI in the test on MOLT-4 leukemia, with HCT-15 colon, with COLO 205 colon, with M14 melanoma, in the test with SF-539 CNS and with OVCAR-3 ovarian was over 100 µM each time. In addition, the TGI in the test with ACHN renal, in the test with NCI-H226 lung, in the test on 786-0 renal and with TK-10 renal was over 100 µM in each case.

For the compound `CC1N=C(c2ccccc2)OC1=O` (configuration not stated), the TGI in the test on MOLT-4 leukemia, in the test on HCT-15 colon, in the test on COLO 205 colon, with M14 melanoma, in the test on SF-539 CNS and with OVCAR-3 ovarian was over 100 µM in each case. Moreover, the TGI in the test on ACHN renal, with NCI-H226 lung, in the test on 786-0 renal and in the test on TK-10 renal was over 100 µM each time.

On to `COc1cc(OC)nc(-n2c(N)c(C(=O)O)c3ccc([N+](=O)[O-])cc3c2=O)n1`, for which the TGI with MOLT-4 leukemia, with HCT-15 colon, with COLO 205 colon, with M14 melanoma, with OVCAR-3 ovarian and in the test with ACHN renal was over 100 µM throughout. Further, the TGI in the test on NCI-H226 lung, in the test with 786-0 renal and in the test on HL-60(TB) leukemia was over 100 µM in each case.

Consider `C[C@H]1S[C@H](c2c(F)cccc2F)n2c1nc1ccccc12`, for which the TGI with MOLT-4 leukemia, in the test on HCT-15 colon, with COLO 205 colon, in the test with M14 melanoma, with OVCAR-3 ovarian and in the test on ACHN renal was over 100 µM in each case. For the same compound, the TGI in the test with NCI-H226 lung, in the test with 786-0 renal and with TK-10 renal was over 100 µM each time.

Regarding `CC(O)C1OC(n2ccc(=O)[nH]c2=O)CC1n1cncn1` (configuration not stated), the TGI in the test with MOLT-4 leukemia, in the test on HCT-15 colon, in the test on COLO 205 colon, with M14 melanoma, in the test on OVCAR-3 ovarian and in the test with ACHN renal was over 100 µM throughout. Also, the TGI with NCI-H226 lung, with 786-0 renal, in the test on TK-10 renal and in the test with HL-60(TB) leukemia was over 100 µM throughout.

As to `COC1C(=O)N(SC)C1c1ccccc1Cl` (configuration not stated), the TGI is 31.6 µM with MOLT-4 leukemia; 45.1 µM with HCT-15 colon; over 100 µM in the test on COLO 205 colon; 94.2 µM in the test on M14 melanoma; 35.2 µM with SF-539 CNS; 34.3 µM with OVCAR-3 ovarian. For the same compound, the TGI was 33.9 µM with ACHN renal, 32.9 µM in the test on 786-0 renal, over 100 µM in the test on TK-10 renal and 42.2 µM in the test with HL-60(TB) leukemia.
